Assay results as given in US20260176267A1, “PREPARATION OF IMIDAZOPYRIDINE AND IMIDAZOPYRIDAZINE DERIVATIVES AS NOVEL DIACYLGLYCERIDE O-ACYLTRANSFERASE 2 INHIBITORS” (Merck Sharp & Dohme LLC, priority 2022, published 2026).

molecular target: T1, human DGAT2 (hDGAT2) (Homo sapiens, UniProt Q96PD7); assay: DGAT2 Enzymatic Activity Assay; type: biochemical; details: membrane prep of Sf-9 cells expressing hDGAT2; 13C18-triolein product by LC/MS/MS; 25 μM diolein, 5 μM 13C oleoyl-CoA, rt
T1 construct: made in house; host or cells: Sf-9 insect cells (baculovirus), membrane fraction
T1 sequence (Q96PD7 1-388): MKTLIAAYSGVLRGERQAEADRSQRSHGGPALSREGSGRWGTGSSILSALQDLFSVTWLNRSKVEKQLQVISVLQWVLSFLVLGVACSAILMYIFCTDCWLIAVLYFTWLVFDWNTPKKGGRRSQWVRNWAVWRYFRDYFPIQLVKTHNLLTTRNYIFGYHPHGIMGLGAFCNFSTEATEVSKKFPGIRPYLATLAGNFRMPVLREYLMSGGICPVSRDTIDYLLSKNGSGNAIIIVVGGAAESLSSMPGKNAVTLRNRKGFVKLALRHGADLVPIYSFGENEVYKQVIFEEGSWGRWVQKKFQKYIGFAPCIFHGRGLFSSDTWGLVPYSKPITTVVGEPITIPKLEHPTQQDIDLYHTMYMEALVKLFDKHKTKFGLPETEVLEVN
Outline: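 At room temperature, DGAT2 activity in baculovirus-infected Sf-9 membrane preps (human enzyme, untagged) is measured as formation of ^13C18-triolein. Product is extracted and measured by positive-mode LC/MS/MS, with the ratio to spiked ^13C21-triolein giving inhibition and IC50.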

IC50 | Structure (SMILES)
2.9 nM | Cc1c(C(=O)NC2CCS(=O)(=O)C(C)(C)C2)nc2ccc(Oc3ncc(F)cc3OCC(F)F)cn12 (centres unmarked) [Example 93, 6-[[3-(2,2-difluoroethoxy)-5-fluoro-2-pyridyl]oxy]-N-(2,2-dimethyl-1,1-dioxo-thian-4-yl)-3-methyl-imidazo[1,2-a]pyridine-2-carboxamide]
12 nM | Cc1c(C(=O)NC2(C)CCS(=O)(=O)CC2)nc2ccc(Oc3ncc(F)cc3OCC(C)(F)F)cn12 [Example 94, 6-[[3-(2,2-difluoropropoxy)-5-fluoro-2-pyridyl]oxy]-3-methyl-N-(4-methyl-1,1-dioxo-thian-4-yl)imidazo[1,2-a]pyridine-2-carboxamide]
3 nM | CCOc1cc(C(F)(F)F)cnc1Oc1ccc2nc(C(=O)NC3(C)CCS(=O)(=O)CC3)c(C)n2c1 [Example 95, 6-[[3-ethoxy-5-(trifluoromethyl)-2-pyridyl]oxy]-3-methyl-N-(4-methyl-1,1-dioxo-thian-4-yl)imidazo[1,2-a]pyridine-2-carboxamide]
5.7 nM | Cc1cnc(Oc2ccc3nc(C(=O)NC4(C)CS(=O)(=O)C4)c(C)n3c2)c(OCC(F)(F)F)n1 [Example 96]
4 nM | Cc1c(C(=O)NC2CC(C(F)(F)F)C2)nc2ccc(Oc3ncc(F)cc3OCC(F)F)cn12 (centres unmarked) [Example 97, 6-[[3-(2,2-difluoroethoxy)-5-fluoro-2-pyridyl]oxy]-3-methyl-N-[3-(trifluoromethyl)cyclobutyl] imidazo[1,2-a]pyridine-2-carboxamide]
56 nM | Cc1c(C(=O)NC23CC(F)(C2)C3)nc2ccc(Oc3ncc(F)cc3OCC(F)F)cn12 [Example 99]
114 nM | Cc1c(C(=O)NC2(C)CCS(=O)(=O)C(C)(C)C2)nc2ccc(Oc3ncc(Cl)cc3OCC(F)F)cn12 (centres unmarked) [Example 100, 6-[[5-chloro-3-(2,2-difluoroethoxy)-2-pyridyl]oxy]-3-methyl-N-(2,2,4-trimethyl-1,1-dioxo-thian-4-yl)imidazo[1,2-a]pyridine-2-carboxamide]
88 nM | Cc1c(C(=O)N[C@]2(C)CCS(=O)(=O)C2)nc2ccc(Oc3ncc(F)cc3OCC(F)(F)F)cn12 [Example 101]
128 nM | Cc1c(C(=O)NC2(C)CCN(C(=O)C(F)(F)F)CC2)nc2ccc(Oc3ncc(F)cc3OCC(F)(F)F)cn12 [Example 102, 6-[[5-fluoro-3-(2,2,2-trifluoroethoxy)-2-pyridyl]oxy]-3-methyl-N-[4-methyl-1-(2,2,2-trifluoroacetyl)-4-piperidyl]imidazo[1,2-a]pyridine-2-carboxamide]
71 nM | Cc1c(C(=O)NC2(C)CS(=O)(=O)C2)nc2ccc(Oc3ncc(C(F)(F)F)nc3OCC(F)(F)F)cn12 [Example 103, 3-methyl-N-(3-methyl-1,1-dioxo-thietan-3-yl)-6-[3-(2,2,2-trifluoroethoxy)-5-(trifluoromethyl)pyrazin-2-yl]oxy-imidazo[1,2-a]pyridine-2-carboxamide]
342 nM | Cc1c(C(=O)NC2(C)CCS(=O)(=O)CC2)nc2ccc(Oc3ncc(F)cc3OCC(F)(F)C(F)F)cn12 [Example 104, 6-[[5-fluoro-3-(2,2,3,3-tetrafluoropropoxy)-2-pyridyl]oxy]-3-methyl-N-(4-methyl-1,1-dioxo-thian-4-yl)imidazo[1,2-a]pyridine-2-carboxamide]
193 nM | Cc1c(C(=O)NC2CCS(=O)(=O)C(C)(C)C2)nc2ccc(Oc3ncc(F)cc3OCC(F)(F)F)cn12 (centres unmarked) [Example 105, N-(2,2-dimethyl-1,1-dioxo-thian-4-yl)-6-[[5-fluoro-3-(2,2,2-trifluoroethoxy)-2-pyridyl]oxy]-3-methyl-imidazo[1,2-a]pyridine-2-carboxamide]
638 nM | CCC1(NC(=O)c2nc3ccc(Oc4nccnc4OCC(F)(F)F)cn3c2C)CCS(=O)(=O)CC1 [Example 106, N-(4-ethyl-1,1-dioxo-thian-4-yl)-3-methyl-6-[3-(2,2,2-trifluoroethoxy)pyrazin-2-yl]oxy-imidazo[1,2-a]pyridine-2-carboxamide]
634 nM | Cc1ccnc(Oc2ccc3nc(C(=O)NC4(C)CCS(=O)(=O)CC4)c(C)n3c2)c1OCC(F)(F)F [Example 107, 3-methyl-N-(4-methyl-1,1-dioxo-thian-4-yl)-6-[[4-methyl-3-(2,2,2-trifluoroethoxy)-2-pyridyl]oxy]imidazo[1,2-a]pyridine-2-carboxamide]
131 nM | Cc1cnc(OCC(F)(F)F)c(Oc2ccc3nc(C(=O)NC4(C)CCS(=O)(=O)CC4)c(C)n3c2)n1 [Example 108, 3-methyl-N-(4-methyl-1,1-dioxo-thian-4-yl)-6-[6-methyl-3-(2,2,2-trifluoroethoxy)pyrazin-2-yl]oxy-imidazo[1,2-a]pyridine-2-carboxamide]
224 nM | Cc1c(C(=O)NC2(C)CCS(=O)(=O)CC2)nc2ccc(Oc3nccc(Cl)c3OCC(F)(F)F)cn12 [Example 109, 6-[[4-chloro-3-(2,2,2-trifluoroethoxy)-2-pyridyl]oxy]-3-methyl-N-(4-methyl-1,1-dioxo-thian-4-yl)imidazo[1,2-a]pyridine-2-carboxamide]
957 nM | Cc1c(C(=O)NCC2(C)CS(=O)(=O)C2)nc2ccc(Oc3ncc(F)cc3OCC(F)(F)F)cn12 [Example 110, 6-[[5-fluoro-3-(2,2,2-trifluoroethoxy)-2-pyridyl]oxy]-3-methyl-N-[(3-methyl-1,1-dioxo-thietan-3-yl)methyl]imidazo[1,2-a]pyridine-2-carboxamide]
298 nM | Cc1ccc(OCC(F)(F)F)c(Oc2ccc3nc(C(=O)NC4(C)CCS(=O)(=O)CC4)c(C)n3c2)n1 [Example 111]
3380 nM | Cc1c(C(=O)NC2(CC(F)(F)F)CCCOC2)nc2ccc(Oc3ncccc3OCC(F)(F)F)cn12 (centres unmarked) [Example 112, 3-methyl-6-[[3-(2,2,2-trifluoroethoxy)-2-pyridyl]oxy]-N-[3-(2,2,2-trifluoroethyl)tetrahydropyran-3-yl]imidazo[1,2-a]pyridine-2-carboxamide]
> 9990 nM | Cc1c(C(=O)N[C@H]2CCC(=O)NC2)nc2ccc(Oc3ncccc3OCC(F)(F)F)cn12 [Example 113, 3-methyl-N-[(3S)-6-oxo-3-piperidyl]-6-[[3-(2,2,2-trifluoroethoxy)-2-pyridyl]oxy]imidazo[1,2-a]pyridine-2-carboxamide]
64 nM | CCOc1cccnc1Oc1ccc2nc(C(=O)NC3(C)CS(=O)(=O)C3)c(CC)n2c1 [Example 114, 6-[(3-ethoxy-2-pyridyl)oxy]-3-ethyl-N-(3-methyl-1,1-dioxo-thietan-3-yl)imidazo[1,2-a]pyridine-2-carboxamide]
44 nM | CCc1c(C(=O)NC2(C)CCS(=O)(=O)CC2)nc2ccc(Oc3ncccc3OCC(F)(F)F)cn12 [Example 115, 3-ethyl-N-(4-methyl-1,1-dioxo-thian-4-yl)-6-[[3-(2,2,2-trifluoroethoxy)-2-pyridyl]oxy]imidazo[1,2-a]pyridine-2-carboxamide]
413 nM | CC(C)c1c(C(=O)NC2(C)CCS(=O)(=O)CC2)nc2ccc(Oc3ncccc3OCC(F)(F)F)cn12 [Example 116, 3-isopropyl-N-(4-methyl-1,1-dioxo-thian-4-yl)-6-[[3-(2,2,2-trifluoroethoxy)-2-pyridyl]oxy]imidazo[1,2-a]pyridine-2-carboxamide]
1.2 nM | Cc1c(C(=O)NC2(C)CCS(=O)(=O)CC2)nc2c(F)cc(Oc3ncccc3OCC(F)(F)F)cn12 [Example 117, 8-fluoro-3-methyl-N-(4-methyl-1,1-dioxo-thian-4-yl)-6-[[3-(2,2,2-trifluoroethoxy)-2-pyridyl]oxy]imidazo[1,2-a]pyridine-2-carboxamide]
1.4 nM | Cc1c(C(=O)NC2(C)CCS(=O)(=O)CC2)nc2cc(F)c(Oc3ncc(F)cc3OCC(F)(F)F)cn12 [Example 118, 7-fluoro-6-[[5-fluoro-3-(2,2,2-trifluoroethoxy)-2-pyridyl]oxy]-3-methyl-N-(4-methyl-1,1-dioxo-thian-4-yl)imidazo[1,2-a]pyridine-2-carboxamide]
1 nM | Cc1c(C(=O)NC2(C)CCS(=O)(=O)CC2)nc2cc(F)c(Oc3ncc(Cl)cc3OCC(F)(F)F)cn12 [Example 119, 6-[[5-chloro-3-(2,2,2-trifluoroethoxy)-2-pyridyl]oxy]-7-fluoro-3-methyl-N-(4-methyl-1,1-dioxo-thian-4-yl)imidazo[1,2-a]pyridine-2-carboxamide]
4.3 nM | Cc1c(C(=O)NC2(C)CS(=O)(=O)C2)nc2cc(F)c(Oc3ncc(Cl)cc3OCC(F)(F)F)cn12 [Example 120, 6-[[5-chloro-3-(2,2,2-trifluoroethoxy)-2-pyridyl]oxy]-7-fluoro-3-methyl-N-(3-methyl-1,1-dioxo-thietan-3-yl)imidazo[1,2-a]pyridine-2-carboxamide]
41 nM | Cc1c(C(=O)NC2(C)CS(=O)(=O)C2)nc2cc(F)c(Oc3ncc(F)cc3OCC(F)(F)F)cn12 [Example 121, 7-fluoro-6-[[5-fluoro-3-(2,2,2-trifluoroethoxy)-2-pyridyl]oxy]-3-methyl-N-(3-methyl-1,1-dioxo-thietan-3-yl)imidazo[1,2-a]pyridine-2-carboxamide]
7.7 nM | Cc1c(C(=O)NC2(C)CCS(=O)(=O)CC2)nc2cc(F)c(Oc3nccnc3OCC(F)(F)F)cn12 [Example 122, 7-fluoro-3-methyl-N-(4-methyl-1,1-dioxo-thian-4-yl)-6-[3-(2,2,2-trifluoroethoxy)pyrazin-2-yl]oxy-imidazo[1,2-a]pyridine-2-carboxamide]
